The text below walks through data of patent publication US9681664B2, “Macrocyclic picolinamides as fungicides” (Dow Agrosciences LLC, priority 2012, dated 2017).

What all share (type): in vivo
The test system of one experiment is Uncinula necator. Nature of the experiment: Grape powdery mildew (UNCINE) disease control. As to conditions: Erysiphe necator, 24 h, High volume application, 1 Day Protectant, read-out: UNCINE 1 DP disease control. The procedure, abridged: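 About one-month-old Carignane grape seedlings were sprayed to run-off with compound in acetone diluted with nine volumes of water containing 110 ppm Triton X-100, then air-dried. Plants were inoculated 24 hr after treatment by shaking spores from infected leaves. They were kept in a greenhouse at 20° C until disease developed, and sprayed leaves were then scored.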

Experiment [1] has as its system Magnaporthe grisea; Anamorph: Pyricularia oryzae. The experiment is described as follows: whole plant or invertebrate. As to conditions: 24 h, read-out: PYRIOR 1 DP disease control.
In experiment [2] the test system is Blumeria graminis f. sp. hordei; Synonym: Erysiphe graminis f. sp. hordei. Nature of the experiment: Barley powdery mildew (ERYSGH) disease control. As to conditions: 24 h, 1 Day Protectant, high volume, read-out: Disease Control ERYSGH 1 DP.
The test system of the next experiment is Erysiphe cichoracearum. Nature of the experiment: Powdery mildew of cucumber (ERYSCI) disease control. As to conditions: Golovinomyces cichoracearum, 24 h, 1 Day Protectant, high volume, read-out: Disease Control ERYSCI 1 DP.
In experiment [3] the test system is Puccinia triticina; Synonym: Puccinia recondite f. sp. tritici. The experiment is described as follows: Wheat brown rust (PUCCRT) disease control on wheat seedlings. As to conditions: Puccinia triticina, Wheat Brown Rust; for pest or weed control at 100 ppm: high volume application; for pest or weed control at 121.5 g/ha: low volume application, 121.5 g/H. An outline of the steps: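 Acetone solutions diluted in nine volumes of water with 110 ppm Triton X-100 sprayed to run-off on first-leaf Yuma wheat seedlings (track spray: EC with 0.1% Trycol 5941). Puccinia triticina spores inoculated before or after treatment; overnight dark dew at 22° C., 100% RH, then greenhouse at 24° C. for disease development.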

Another experiment has as its system Phakopsora pachyrhizi. Nature of the experiment: Asian soybean rust (PHAKPA) disease control. As to conditions: topical, high volume. An outline of the steps: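 Compounds in acetone diluted with nine volumes water containing 0.011% Tween 20, sprayed to run-off on two-week-old Williams 82 soybean seedlings, inoculated 3 days before or 1 day after treatment. Plants held 24 h in dark dew room at 22 °C, 100% RH, then at 23 °C; disease severity scored on sprayed leaves.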

The subject of experiment [4] is Mycosphaerella graminicola; Anamorph: Septoria tritici. The experiment is described as follows: Leaf blotch of wheat (SEPTTR) disease control on wheat seedlings. As to conditions: Zymoseptoria tritici, Wheat Leaf Blotch; for pest or weed control at 100 ppm: high volume application; for pest or weed control at 121.5 g/ha: low volume application, 121.5 g/H. An outline of the steps:
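Wheat seedlings (Yuma, first leaf emerged) sprayed to run-off with compound in acetone/water with 110 ppm Triton X-100, or track-sprayed as EC with 0.1% Trycol 5941. Septoria tritici spores inoculated before or after treatment. Dew chambers, then 20 °C greenhouse. Percent disease control derived from severity (0–100%) relative to untreated plants.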

[5] abbreviates: 24 h, 1 Day Protectant, read-out: Disease Control PUCCRT 1 DP 121.5 g/H.
Where [6] appears, read: 72 h, 3 Day Curative, read-out: Disease Control PUCCRT 3 DC 121.5 g/H.
Where [7] appears, read: 24 h, 1 Day Protectant, read-out: Disease Control PHAKPA 1DP.
Where [8] appears, read: 72 h, 3 Day Curative, read-out: Disease Control PHAKPA 3DC.
Where [9] appears, read: 24 h, 1 Day Protectant, read-out: Disease Control SEPTTR 1 DP 121.5 g/H.
[10] abbreviates: 72 h, 3 Day Curative, read-out: Disease Control SEPTTR 3 DC 121.5 g/H.

Like-named read-outs stand apart in the source and are kept apart here.

For the molecule `COc1ccnc(C(=O)N[C@H]2CCC[C@H](Oc3ccccc3)[C@@H](OC(=O)C3CC3)[C@H](C)OC2=O)c1OC(C)=O` [F242], the pest or weed control at 100 ppm with Uncinula necator was 0 to 80%; in experiment [1], 80 to 100%; in experiment [2], 0 to 80%; in the experiment on Erysiphe cichoracearum it was less than 0%; in experiment [3] (24 h, 1 Day Protectant, read-out: Disease Control PUCCRT 1 DP 100 ppm), 80 to 100%; in experiment [3] (72 h, 3 Day Curative, read-out: Disease Control PUCCRT 3 DC 100 ppm), 80 to 100%. For the same molecule, the pest or weed control at 100 ppm in experiment [4] (24 h, 1 Day Protectant, read-out: Disease Control SEPTTR 1 DP 100 ppm) was 80 to 100%; in experiment [4] (72 h, 3 Day Curative, read-out: Disease Control SEPTTR 3 DC 100 ppm), 80 to 100%. The pest or weed control at 121.5 g/ha in experiment [3] (setting [5]) was in the range of 80 to 100%; in experiment [3] (setting [6]) it was 0 to 80%; in experiment [4] (setting [9]) it was 0 to 80%; in experiment [4] (setting [10]), 0 to 80%. Also, the pest or weed control at 25 ppm in the experiment on Phakopsora pachyrhizi (setting [7]) lay within 80 to 100%; with Phakopsora pachyrhizi (setting [8]), 0 to 80%.
In the case of `C=C(C)CO[C@H]1CCC[C@H](NC(=O)c2nccc(OC)c2OCOC(C)=O)C(=O)O[C@@H](C)[C@@H]1OC` [F250], the pest or weed control at 100 ppm with Uncinula necator was 0 to 80%; in experiment [1], 80 to 100%; in experiment [2] it was 0 to 80%; in the experiment with Erysiphe cichoracearum, less than 0%. Also, the pest or weed control at 121.5 g/ha is 0 to 80% in experiment [3] (setting [5]), 80 to 100% in experiment [3] (setting [6]), less than 0% in experiment [4] (setting [9]) and 0 to 80% in experiment [4] (setting [10]). Besides, the pest or weed control at 25 ppm in the experiment on Phakopsora pachyrhizi (setting [7]) is 0 to 80%; with Phakopsora pachyrhizi (setting [8]), less than 0%.
As to `COc1ccnc(C(=O)N[C@H]2CCC[C@H](OCC(C)C)[C@@H](OC)[C@H](C)OC2=O)c1OCOC(C)=O` [F251], the pest or weed control at 100 ppm in the experiment with Uncinula necator is 0 to 80%; in experiment [1], 80 to 100%; in experiment [2], less than 0%; in the experiment with Erysiphe cichoracearum it was less than 0%. The pest or weed control at 121.5 g/ha in experiment [3] (setting [5]) was 80 to 100%; in experiment [3] (setting [6]) it was 80 to 100%; in experiment [4] (setting [9]) it was less than 0%; in experiment [4] (setting [10]), less than 0%. Further, the pest or weed control at 25 ppm fell in the range of 80 to 100% in the experiment with Phakopsora pachyrhizi (setting [7]) and 0 to 80% in the experiment with Phakopsora pachyrhizi (setting [8]).
Take `COc1ccnc(C(=O)N[C@H]2CCC[C@H](Oc3ccccc3)[C@@H](OC)[C@H](C)OC2=O)c1OCOC(C)=O` [F252]: the pest or weed control at 100 ppm in the experiment on Uncinula necator was 0 to 80%; in experiment [1], 80 to 100%; in experiment [2], 0 to 80%; in the experiment on Erysiphe cichoracearum it was less than 0%. In addition, the pest or weed control at 121.5 g/ha in experiment [3] (setting [5]) lay in the range of 80 to 100%; in experiment [3] (setting [6]), 80 to 100%; in experiment [4] (setting [9]), 0 to 80%; in experiment [4] (setting [10]), 0 to 80%. The pest or weed control at 25 ppm in the experiment with Phakopsora pachyrhizi (setting [7]) fell in the range of 80 to 100%; with Phakopsora pachyrhizi (setting [8]) it was 0 to 80%.
For the molecule `C=C(C)CO[C@H]1CCC[C@H](NC(=O)c2nccc(OC)c2OCOC(=O)C(C)C)C(=O)O[C@@H](C)[C@@H]1OC` [F253], the pest or weed control at 100 ppm with Uncinula necator is 0 to 80%; in experiment [1] it was 80 to 100%; in experiment [2] it was 0 to 80%; in the experiment on Erysiphe cichoracearum, less than 0%. Moreover, the pest or weed control at 121.5 g/ha is 80 to 100% in experiment [3] (setting [5]), 80 to 100% in experiment [3] (setting [6]), less than 0% in experiment [4] (setting [9]) and less than 0% in experiment [4] (setting [10]). Further, the pest or weed control at 25 ppm with Phakopsora pachyrhizi (setting [7]) was 0 to 80%; in the experiment on Phakopsora pachyrhizi (setting [8]), less than 0%.
`COc1ccnc(C(=O)N[C@H]2CCC[C@H](OCC(C)C)[C@@H](OC)[C@H](C)OC2=O)c1OCOC(=O)C(C)C` [F254]: the pest or weed control at 100 ppm in the experiment with Uncinula necator is 0 to 80%; in experiment [1] it was 80 to 100%; in experiment [2] it was 0 to 80%; in the experiment with Erysiphe cichoracearum it was less than 0%. Besides, the pest or weed control at 121.5 g/ha in experiment [3] (setting [5]) was 80 to 100%; in experiment [3] (setting [6]) it was 80 to 100%; in experiment [4] (setting [9]), less than 0%; in experiment [4] (setting [10]) it was less than 0%. The pest or weed control at 25 ppm with Phakopsora pachyrhizi (setting [7]) was 80 to 100%; with Phakopsora pachyrhizi (setting [8]), 0 to 80%.
Take `COc1ccnc(C(=O)N[C@H]2CCC[C@H](Oc3ccccc3)[C@@H](OC)[C@H](C)OC2=O)c1OCOC(=O)C(C)C` [F255]: the pest or weed control at 100 ppm was 80 to 100% in the experiment with Uncinula necator, 80 to 100% in experiment [1], 0 to 80% in experiment [2] and less than 0% with Erysiphe cichoracearum. Also, the pest or weed control at 121.5 g/ha in experiment [3] (setting [5]) lay within 80 to 100%; in experiment [3] (setting [6]), 80 to 100%; in experiment [4] (setting [9]) it was 0 to 80%; in experiment [4] (setting [10]), 0 to 80%. Moreover, the results for the pest or weed control at 25 ppm in the experiment with Phakopsora pachyrhizi (setting [7]) and with Phakopsora pachyrhizi (setting [8]) were 80 to 100% and 0 to 80%, respectively.
